Assay results reported in patent publication US10993912B2, “Carrier-antibody compositions and methods of making and using the same” (MAYO FOUNDATION FOR MEDICAL EDUCATION AND RESEARCH, priority 2014, dated 2021).

What was measured:
ABX [1] = target: T1, ABX (Homo sapiens, UniProt P02768); assay: Binding of cisplatin to ABX, free cisplatin by HPLC; conditions: ABX 5 mg/ml, cisplatin 0.5 mg/ml, room temperature 30 minutes
T1 construct: purchased Celgene Corporation, Summit, N.J

ABX [2] = target: T1, ABX; assay: Bio-Layer Interferometry (BLItz) binding assay of antibody and ABX; conditions: for dependence of binding affinity to ABX on pH / temperature: pH 3, 5, 7, 9, for BEV also RT, 37° C. and 58° C.
Description: The association and dissociation constants were calculated using the BLItz software.

[3] = system: A375 human melanoma cells; assay: A375 xenograft efficacy in athymic nude mice; format: in vivo; conditions: Example 5; ABX 30 mg/kg, BEV 12 mg/kg, tumors about 700 mm^3 at treatment
Description: Tumor response was determined at day 7 post-treatment by the percent change in tumor size from the day of treatment.
In vivo experiments were performed at least 2 times. The number of mice required for those experiments was determined by power analysis. Mouse tumors were measured 2-3 times/week and mice were sacrificed when the tumor was 10% by weight. […] The end point of the mouse studies was median survival. Kaplan-Meier curves were generated and Mantle-Cox test was performed to determine significance of median survival between treatment groups. The in vitro results presented are representative of at least 5 repeated experiments. Statistical analyses of in vitro and in vivo percent change from baseline experiments were done using the Student's t-test.
(§1) To test tumor efficacy, 1×10^6 A375 human melanoma cells were implanted into the right flank of athymic nude mice (Harlan Sprague Dawley, Indianapolis, Ind.). […] Tumor size was monitored 3 times/week and tumor volume was calculated with the following equation: (length*width^2)/2. Mice were sacrificed when the tumor size equaled 10% of the mouse body weight or about 2500 mm^3. The day 7 percent change from baseline was calculated as follows: [(tumor size on treatment day-tumor size on day 7)/tumor size on treatment day]*100.

[4] = system: A375 human melanoma cells; assay: A375 xenograft, pretreatment with BEV before AB160; format: in vivo, athymic nude mice; conditions: 12 mg/kg dose
Excerpt: Data is represented at day 7-post and 10-day treatment as tumor volume in mm^3.
Data is represented at day 7-post and day 10-post treatment as tumor volume in mm^3. F 11A-E track tumor size over 10 days. […] See also FIG. 11F and FIG. 11G.

[5] = system: Daudi human lymphoma cells; assay: Daudi xenograft efficacy in athymic nude mice; format: in vivo; conditions: ABX 30 mg/kg, rituximab 12 mg/kg
Description: Tumor response was determined at day 7 post-treatment by the percent change in tumor size from the first day of treatment.
as §1

Compound: N.N.[Cl][Pt][Cl] [cisplatin]
- cisplatin remaining in the supernatant (ABX [1]): 40%

Compound: bevacizumab
- binding affinity to ABX (in words) (ABX [2]): picomolar range
- dependence of binding affinity to ABX on pH / temperature (ABX [2]): highest binding affinity observed when the particles are formed at pH 5 and 58 °C
- median survival [3]: 14 days
- therapeutic effect of BEV alone [4]: not therapeutic

Compound: rituximab
- median survival [5]: 12 days
- binding affinity to ABX (in words) (ABX [2]): picomolar range
- dependence of binding affinity to ABX on pH / temperature (ABX [2]): decreased with higher pH
